# Laboratory results reported in ChEMBL document CHEMBL5291721, “A preclinical secondary pharmacology resource illuminates target-adverse drug reaction associations of marketed drugs” (Nat Commun, 2023).
# Columns and labels:
# [1] = biological target: Sodium-dependent noradrenaline transporter (Homo sapiens, UniProt P23975)
# [2] = biological target: T1, Prostaglandin G/H synthase 1 (Rattus norvegicus, UniProt Q63921); format: functional
# T1 sequence (Q63921 whole entry): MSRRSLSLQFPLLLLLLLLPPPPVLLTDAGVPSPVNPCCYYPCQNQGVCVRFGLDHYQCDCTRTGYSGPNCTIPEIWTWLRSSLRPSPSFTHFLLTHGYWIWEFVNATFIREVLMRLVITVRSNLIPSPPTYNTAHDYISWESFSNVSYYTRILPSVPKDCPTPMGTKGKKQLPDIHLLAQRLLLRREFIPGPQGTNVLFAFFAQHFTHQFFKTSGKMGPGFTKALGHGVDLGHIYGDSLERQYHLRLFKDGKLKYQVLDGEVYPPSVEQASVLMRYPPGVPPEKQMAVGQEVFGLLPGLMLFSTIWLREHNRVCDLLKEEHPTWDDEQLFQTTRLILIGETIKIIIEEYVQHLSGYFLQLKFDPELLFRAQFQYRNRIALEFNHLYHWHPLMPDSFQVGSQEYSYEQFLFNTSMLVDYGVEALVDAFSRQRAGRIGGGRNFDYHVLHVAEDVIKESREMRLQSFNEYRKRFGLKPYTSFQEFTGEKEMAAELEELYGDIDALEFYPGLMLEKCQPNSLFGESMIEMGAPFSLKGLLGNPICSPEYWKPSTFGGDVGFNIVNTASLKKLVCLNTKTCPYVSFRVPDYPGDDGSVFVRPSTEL
# [3] = biological target: Gamma-aminobutyric acid receptor subunit alpha-1 (Rattus norvegicus, UniProt P62813); format: functional
# [4] = biological target: D(3) dopamine receptor (Homo sapiens, UniProt P35462)
# [5] = biological target: cGMP-inhibited 3',5'-cyclic phosphodiesterase 3A (Homo sapiens, UniProt Q14432); format: functional
# [6] = biological target: T2, Alpha-2A adrenergic receptor (Homo sapiens, UniProt P08913); format: functional, cell-based
# T2 sequence (P08913 whole entry): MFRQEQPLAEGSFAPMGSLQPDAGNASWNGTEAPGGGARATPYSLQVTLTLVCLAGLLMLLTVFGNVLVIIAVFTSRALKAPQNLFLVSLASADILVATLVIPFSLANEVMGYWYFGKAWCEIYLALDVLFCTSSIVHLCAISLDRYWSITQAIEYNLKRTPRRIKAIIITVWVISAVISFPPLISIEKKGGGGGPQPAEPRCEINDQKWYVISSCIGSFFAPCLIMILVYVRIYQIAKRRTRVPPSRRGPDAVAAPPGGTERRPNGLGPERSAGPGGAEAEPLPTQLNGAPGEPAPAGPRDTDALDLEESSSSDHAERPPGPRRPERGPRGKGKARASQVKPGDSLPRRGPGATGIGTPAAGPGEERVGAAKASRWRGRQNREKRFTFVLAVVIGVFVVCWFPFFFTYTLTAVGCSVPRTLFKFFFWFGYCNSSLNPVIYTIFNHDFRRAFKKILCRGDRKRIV
# [7] = biological target: Motilin receptor (Homo sapiens, UniProt O43193)
# [8] = biological target: Bile salt export pump (Homo sapiens, UniProt O95342); format: functional
# [9] = biological target: T3, Alpha-2C adrenergic receptor (Homo sapiens, UniProt P18825); format: functional
# T3 sequence (P18825 whole entry): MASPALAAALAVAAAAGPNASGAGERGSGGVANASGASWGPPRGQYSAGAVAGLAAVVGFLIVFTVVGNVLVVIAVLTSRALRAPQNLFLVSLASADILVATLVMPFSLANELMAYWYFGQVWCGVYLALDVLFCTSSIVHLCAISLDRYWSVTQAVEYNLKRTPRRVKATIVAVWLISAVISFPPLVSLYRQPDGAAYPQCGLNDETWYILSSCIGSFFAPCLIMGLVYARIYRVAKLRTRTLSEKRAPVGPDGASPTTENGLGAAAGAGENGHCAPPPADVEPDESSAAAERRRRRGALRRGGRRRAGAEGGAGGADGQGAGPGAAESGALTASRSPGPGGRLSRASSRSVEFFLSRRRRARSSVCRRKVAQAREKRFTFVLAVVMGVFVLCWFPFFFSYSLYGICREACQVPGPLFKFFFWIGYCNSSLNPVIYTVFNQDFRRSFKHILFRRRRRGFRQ
# [10] = biological target: Sodium-dependent dopamine transporter (Homo sapiens, UniProt Q01959)
# [11] = biological target: T4, Cholecystokinin receptor type A (Homo sapiens, UniProt P32238)
# T4 sequence (P32238 whole entry): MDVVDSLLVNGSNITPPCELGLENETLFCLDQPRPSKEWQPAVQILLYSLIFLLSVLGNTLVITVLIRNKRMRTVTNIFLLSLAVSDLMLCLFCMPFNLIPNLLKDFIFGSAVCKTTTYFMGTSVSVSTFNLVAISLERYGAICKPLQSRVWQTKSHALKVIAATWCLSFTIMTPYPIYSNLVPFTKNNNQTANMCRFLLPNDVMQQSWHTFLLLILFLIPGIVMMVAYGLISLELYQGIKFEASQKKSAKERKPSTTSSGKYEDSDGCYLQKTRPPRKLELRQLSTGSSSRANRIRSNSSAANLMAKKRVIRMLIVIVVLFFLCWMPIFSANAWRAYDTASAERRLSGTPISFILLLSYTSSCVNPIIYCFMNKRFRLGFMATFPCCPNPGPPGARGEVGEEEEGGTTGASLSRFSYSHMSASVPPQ
# [12] = biological target: T5, Adenosine receptor A1 (Homo sapiens, UniProt P30542)
# T5 sequence (P30542 whole entry): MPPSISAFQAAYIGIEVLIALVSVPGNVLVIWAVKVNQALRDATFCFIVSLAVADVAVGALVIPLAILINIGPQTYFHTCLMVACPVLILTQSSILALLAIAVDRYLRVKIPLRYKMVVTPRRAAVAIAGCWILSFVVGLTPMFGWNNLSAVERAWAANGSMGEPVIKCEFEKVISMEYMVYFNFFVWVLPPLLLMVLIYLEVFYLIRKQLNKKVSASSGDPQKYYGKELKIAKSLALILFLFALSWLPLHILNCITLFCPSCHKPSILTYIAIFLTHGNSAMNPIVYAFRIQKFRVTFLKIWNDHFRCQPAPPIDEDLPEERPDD
# [13] = biological target: D(1A) dopamine receptor (Homo sapiens, UniProt P21728); format: functional, cell-based
# Note: assay procedure not described here.
# Sodium-dependent dopamine transporter, sequence (Q01959 whole entry): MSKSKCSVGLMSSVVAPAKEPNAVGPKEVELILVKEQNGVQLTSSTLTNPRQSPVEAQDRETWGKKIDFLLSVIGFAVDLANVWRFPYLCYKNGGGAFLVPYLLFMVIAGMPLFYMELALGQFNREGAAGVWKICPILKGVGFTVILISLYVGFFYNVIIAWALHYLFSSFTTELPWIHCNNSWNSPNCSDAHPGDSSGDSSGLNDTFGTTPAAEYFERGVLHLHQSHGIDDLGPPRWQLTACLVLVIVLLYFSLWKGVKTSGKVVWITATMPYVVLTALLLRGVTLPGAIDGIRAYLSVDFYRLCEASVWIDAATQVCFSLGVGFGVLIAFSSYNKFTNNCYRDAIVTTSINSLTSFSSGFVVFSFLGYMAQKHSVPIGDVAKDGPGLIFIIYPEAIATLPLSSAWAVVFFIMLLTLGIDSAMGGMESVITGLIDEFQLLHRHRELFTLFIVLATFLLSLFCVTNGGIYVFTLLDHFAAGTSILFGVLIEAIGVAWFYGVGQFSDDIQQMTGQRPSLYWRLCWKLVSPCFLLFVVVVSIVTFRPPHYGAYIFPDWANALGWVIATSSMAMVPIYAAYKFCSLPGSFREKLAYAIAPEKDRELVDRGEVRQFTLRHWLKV
# D(1A) dopamine receptor, sequence (P21728 whole entry): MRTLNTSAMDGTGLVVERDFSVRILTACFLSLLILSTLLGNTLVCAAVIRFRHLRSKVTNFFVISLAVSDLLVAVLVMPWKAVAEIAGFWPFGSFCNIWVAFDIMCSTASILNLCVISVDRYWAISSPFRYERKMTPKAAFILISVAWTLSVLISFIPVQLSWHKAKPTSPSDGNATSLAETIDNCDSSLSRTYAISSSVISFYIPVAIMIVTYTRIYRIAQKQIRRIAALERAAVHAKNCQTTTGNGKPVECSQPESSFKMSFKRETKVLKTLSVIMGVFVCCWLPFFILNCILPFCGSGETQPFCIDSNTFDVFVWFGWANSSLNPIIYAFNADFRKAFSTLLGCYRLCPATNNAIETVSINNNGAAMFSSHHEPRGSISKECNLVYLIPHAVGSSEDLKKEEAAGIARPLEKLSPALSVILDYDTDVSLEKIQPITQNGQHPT
# cGMP-inhibited 3',5'-cyclic phosphodiesterase 3A, sequence (Q14432 whole entry): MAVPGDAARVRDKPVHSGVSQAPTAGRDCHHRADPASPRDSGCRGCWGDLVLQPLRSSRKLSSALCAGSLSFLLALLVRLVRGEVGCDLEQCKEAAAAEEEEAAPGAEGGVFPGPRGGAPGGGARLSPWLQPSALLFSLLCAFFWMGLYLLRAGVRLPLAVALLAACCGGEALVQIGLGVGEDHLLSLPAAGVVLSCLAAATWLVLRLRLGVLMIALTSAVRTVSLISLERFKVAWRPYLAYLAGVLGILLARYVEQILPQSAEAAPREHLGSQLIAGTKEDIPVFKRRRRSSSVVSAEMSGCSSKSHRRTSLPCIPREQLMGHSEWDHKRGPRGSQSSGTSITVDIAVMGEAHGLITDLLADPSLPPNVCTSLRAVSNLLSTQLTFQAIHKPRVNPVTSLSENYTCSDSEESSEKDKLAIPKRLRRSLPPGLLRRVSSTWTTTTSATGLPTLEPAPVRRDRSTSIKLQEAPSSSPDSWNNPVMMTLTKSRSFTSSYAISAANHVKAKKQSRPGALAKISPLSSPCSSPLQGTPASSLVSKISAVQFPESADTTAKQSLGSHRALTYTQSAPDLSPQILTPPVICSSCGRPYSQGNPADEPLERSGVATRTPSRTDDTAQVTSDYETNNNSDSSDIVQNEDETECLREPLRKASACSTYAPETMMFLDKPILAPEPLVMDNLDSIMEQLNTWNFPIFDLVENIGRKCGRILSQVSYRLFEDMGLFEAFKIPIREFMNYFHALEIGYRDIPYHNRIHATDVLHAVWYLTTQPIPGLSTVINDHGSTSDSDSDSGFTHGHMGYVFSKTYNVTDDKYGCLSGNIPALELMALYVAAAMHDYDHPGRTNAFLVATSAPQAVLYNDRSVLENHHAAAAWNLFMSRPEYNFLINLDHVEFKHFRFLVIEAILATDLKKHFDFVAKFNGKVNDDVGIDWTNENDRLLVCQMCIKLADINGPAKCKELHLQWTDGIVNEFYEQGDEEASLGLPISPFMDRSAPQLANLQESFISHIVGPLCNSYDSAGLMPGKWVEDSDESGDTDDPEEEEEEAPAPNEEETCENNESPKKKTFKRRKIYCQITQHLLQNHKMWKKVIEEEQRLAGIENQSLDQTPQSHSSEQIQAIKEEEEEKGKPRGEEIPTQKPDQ
# Bile salt export pump, sequence (O95342 whole entry): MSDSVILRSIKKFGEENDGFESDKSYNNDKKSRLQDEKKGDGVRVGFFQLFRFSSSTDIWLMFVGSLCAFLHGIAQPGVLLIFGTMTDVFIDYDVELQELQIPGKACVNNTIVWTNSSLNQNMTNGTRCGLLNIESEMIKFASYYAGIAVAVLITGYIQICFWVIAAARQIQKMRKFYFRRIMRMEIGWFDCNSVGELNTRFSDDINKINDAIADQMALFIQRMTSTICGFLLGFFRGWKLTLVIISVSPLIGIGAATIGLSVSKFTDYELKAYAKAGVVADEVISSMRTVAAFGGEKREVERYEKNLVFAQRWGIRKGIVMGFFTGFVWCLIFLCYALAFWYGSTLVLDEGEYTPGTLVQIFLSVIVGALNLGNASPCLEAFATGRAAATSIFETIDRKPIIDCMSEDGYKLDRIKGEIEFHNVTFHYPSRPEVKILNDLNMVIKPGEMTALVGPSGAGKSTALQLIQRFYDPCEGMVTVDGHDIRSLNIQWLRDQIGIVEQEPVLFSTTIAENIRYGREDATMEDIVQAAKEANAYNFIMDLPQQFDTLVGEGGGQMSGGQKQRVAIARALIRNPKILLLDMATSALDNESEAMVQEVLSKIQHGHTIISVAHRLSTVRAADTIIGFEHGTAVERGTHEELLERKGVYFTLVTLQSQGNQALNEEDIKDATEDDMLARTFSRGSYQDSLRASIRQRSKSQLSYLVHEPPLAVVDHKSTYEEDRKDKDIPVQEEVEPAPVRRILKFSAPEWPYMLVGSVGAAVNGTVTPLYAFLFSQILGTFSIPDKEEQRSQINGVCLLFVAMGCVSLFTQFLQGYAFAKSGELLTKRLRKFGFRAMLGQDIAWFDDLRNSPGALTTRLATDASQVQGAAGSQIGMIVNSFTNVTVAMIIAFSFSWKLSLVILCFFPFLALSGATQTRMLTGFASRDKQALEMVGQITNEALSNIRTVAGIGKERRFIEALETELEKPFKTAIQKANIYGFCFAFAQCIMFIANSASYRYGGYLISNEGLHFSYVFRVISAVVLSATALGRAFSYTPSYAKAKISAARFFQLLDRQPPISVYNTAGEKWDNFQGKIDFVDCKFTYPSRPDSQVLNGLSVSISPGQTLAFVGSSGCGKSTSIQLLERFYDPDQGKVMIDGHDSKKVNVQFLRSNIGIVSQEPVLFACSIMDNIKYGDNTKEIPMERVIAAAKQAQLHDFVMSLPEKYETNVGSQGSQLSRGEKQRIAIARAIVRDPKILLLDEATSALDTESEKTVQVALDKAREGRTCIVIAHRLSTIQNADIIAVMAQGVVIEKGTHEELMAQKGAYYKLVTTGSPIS
# Sodium-dependent noradrenaline transporter, sequence (P23975 whole entry): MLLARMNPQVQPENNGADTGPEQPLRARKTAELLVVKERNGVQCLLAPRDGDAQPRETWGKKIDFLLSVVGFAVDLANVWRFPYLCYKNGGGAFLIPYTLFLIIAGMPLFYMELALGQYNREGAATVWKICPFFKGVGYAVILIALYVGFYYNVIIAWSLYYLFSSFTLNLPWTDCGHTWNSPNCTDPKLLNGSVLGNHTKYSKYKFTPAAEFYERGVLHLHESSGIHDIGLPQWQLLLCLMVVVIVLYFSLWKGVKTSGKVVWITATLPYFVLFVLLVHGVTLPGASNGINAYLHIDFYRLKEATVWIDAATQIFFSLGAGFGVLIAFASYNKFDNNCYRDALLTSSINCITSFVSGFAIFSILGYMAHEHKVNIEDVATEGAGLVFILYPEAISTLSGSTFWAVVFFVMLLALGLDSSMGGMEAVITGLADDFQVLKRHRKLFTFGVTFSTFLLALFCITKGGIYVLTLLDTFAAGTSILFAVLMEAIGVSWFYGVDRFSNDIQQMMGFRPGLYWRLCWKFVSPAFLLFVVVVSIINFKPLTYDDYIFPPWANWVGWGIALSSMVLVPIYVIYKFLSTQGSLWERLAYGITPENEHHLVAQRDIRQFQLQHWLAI
# D(3) dopamine receptor, sequence (P35462 whole entry): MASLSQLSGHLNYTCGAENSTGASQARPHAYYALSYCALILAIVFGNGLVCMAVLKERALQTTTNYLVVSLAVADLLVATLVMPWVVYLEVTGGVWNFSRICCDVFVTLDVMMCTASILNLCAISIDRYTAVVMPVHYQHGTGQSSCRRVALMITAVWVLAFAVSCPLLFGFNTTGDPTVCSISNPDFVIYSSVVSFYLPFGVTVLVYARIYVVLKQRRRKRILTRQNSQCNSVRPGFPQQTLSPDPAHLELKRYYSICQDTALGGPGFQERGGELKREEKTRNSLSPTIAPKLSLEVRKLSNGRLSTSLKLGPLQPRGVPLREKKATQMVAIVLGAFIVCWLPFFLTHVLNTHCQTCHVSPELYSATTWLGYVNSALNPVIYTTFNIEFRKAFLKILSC
# Motilin receptor, sequence (O43193 whole entry): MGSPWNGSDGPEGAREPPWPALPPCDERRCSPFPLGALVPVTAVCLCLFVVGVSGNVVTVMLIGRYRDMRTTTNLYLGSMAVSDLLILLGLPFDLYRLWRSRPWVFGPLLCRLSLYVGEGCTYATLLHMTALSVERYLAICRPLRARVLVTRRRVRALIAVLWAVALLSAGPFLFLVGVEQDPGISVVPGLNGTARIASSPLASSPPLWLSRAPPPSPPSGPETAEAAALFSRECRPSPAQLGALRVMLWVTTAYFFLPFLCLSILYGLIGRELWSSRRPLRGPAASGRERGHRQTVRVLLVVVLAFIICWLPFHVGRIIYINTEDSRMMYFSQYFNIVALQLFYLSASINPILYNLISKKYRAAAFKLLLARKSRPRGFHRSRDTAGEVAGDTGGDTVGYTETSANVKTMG
Structure (SMILES),AC50 [1] [µM],AC50 [2] [µM],AC50 [3] [µM],AC50 [4] [µM],AC50 [5] [µM],AC50 [6] [µM],AC50 [7] [µM],AC50 [8] [µM],AC50 [9] [µM],AC50 [10] [µM],AC50 [11] [µM],AC50 [12] [µM],AC50 [13] [µM]
CNC1Cc2ccccc2N(C)c2ccccc21 (configuration not stated) [METAPRAMINE],16,> 30,> 30,> 30,> 30,3.2,> 30,> 300,26,> 30,> 30,> 30,> 30
C[C@]12CCC(=O)C=C1CC[C@@H]1[C@@H]2[C@@H](O)C[C@@]2(C)[C@H]1CC[C@]2(O)C(=O)CO [HYDROCORTISONE],> 10,> 30,> 10,> 10,> 30,> 10,> 10,> 300,> 10,> 10,> 30,> 30,> 10
CNC(=O)c1ccccc1Sc1ccc2c(/C=C/c3ccccn3)n[nH]c2c1 [AXITINIB],> 30,> 30,> 30,> 30,> 30,> 30,> 30,5.4,> 30,0.07,> 30,> 30,> 30
Cn1nnc2c(C(N)=O)ncn2c1=O [TEMOZOLOMIDE],> 30,> 30,> 30,> 30,> 30,> 30,> 30,> 300,> 30,> 30,> 30,> 30,> 30
CN(C)/N=N/c1[nH]cnc1C(N)=O [DACARBAZINE],> 10,> 10,> 10,> 30,> 30,> 10,> 10,> 300,> 10,> 10,> 10,> 10,> 10
CC[C@H]1OC(=O)[C@H](C)[C@@H](O[C@H]2C[C@@](C)(OC)[C@@H](O)[C@H](C)O2)[C@H](C)[C@@H](O[C@@H]2O[C@H](C)C[C@H](N(C)C)[C@H]2O)[C@](C)(O)C[C@@H](C)CN(C)[C@H](C)[C@@H](O)[C@]1(C)O [AZITHROMYCIN],> 10,> 30,> 10,> 10,> 30,> 10,> 10,200,> 10,> 10,> 30,> 30,> 10
CC[C@H]1[C@@H](O)[C@@H]2[C@H](CC[C@]3(C)[C@@H]([C@H](C)CCC(=O)O)CC[C@@H]23)[C@@]2(C)CC[C@@H](O)C[C@@H]12 [OBETICHOLIC ACID],> 30,27,> 30,> 30,> 30,11,> 30,> 300,> 30,> 30,> 30,> 30,> 30
CCCCN1C[C@H](O)[C@@H](O)[C@H](O)[C@H]1CO,> 30,> 30,> 30,> 30,> 30,> 30,> 30,> 300,> 30,> 30,> 30,> 30,> 30
NCC(CC(=O)O)c1ccc(Cl)cc1 (configuration not stated) [BACLOFEN],> 30,> 30,> 30,> 30,> 30,> 30,> 30,> 300,> 30,> 30,> 30,> 30,> 30
c1ccc([C@H]2CN3CCSC3=N2)cc1 [LEVAMISOLE],> 30,> 30,> 30,> 30,> 30,> 30,> 30,> 300,> 30,> 30,> 30,> 30,1.6
Clc1ccc(C(c2ccccc2Cl)C(Cl)Cl)cc1 (configuration not stated) [MITOTANE],> 10,> 10,> 10,> 30,> 30,> 10,> 10,41,> 10,> 10,> 10,> 10,> 10
COc1ccc(CC(C)(C)NC[C@H](O)c2cc(O)cc3c2OCC(=O)N3)cc1 [OLODATEROL],> 30,17.5,> 30,> 30,> 30,10,> 30,> 300,> 30,11,> 30,> 30,> 30
CC1(C)NC(=O)N(c2ccc([N+](=O)[O-])c(C(F)(F)F)c2)C1=O [NILUTAMIDE],> 30,> 30,> 30,> 30,> 30,> 30,> 30,> 300,> 30,> 30,> 30,> 30,> 30
CCOC(=O)[C@H](CCc1ccccc1)N[C@@H](C)C(=O)N1[C@H](C(=O)O)C[C@@H]2CCC[C@@H]21,> 10,> 30,> 10,> 10,> 30,> 10,> 10,> 300,> 10,> 10,> 30,> 30,> 10
